Assay results taken from publication PMC6759624, “Unraveling Heparan Sulfate Proteoglycan Binding Motif for Cancer Cell Selectivity” (Frontiers in Oncology, 2019).
Entries after “also recorded” stand apart in the source; their conditions may differ.

Assays:
[1] = tested on: glypican-4; assay: SPR, NT4 binding to recombinant glypican-4; design: species or system human; conditions: rHSPG over immobilized NT4
Description: (§1) Experiments were performed on a Biacore T100 instrument (GE Healthcare). All materials were purchased from GE Healthcare unless otherwise specified. Full-length recombinant human HSPG were purchased from R&D Systems. Syndecan-3, syndecan-4, and glypican-3 were obtained from the mouse myeloma cell line (NS0), and glypican-4 was obtained from the Chinese Hamster Ovary cell line. The activity of syndecan-4, glypican-3, and glypican-4 was measured by the supplier as the ability of the immobilized protein to bind FGF-basic. The activity of syndecan-3 was measured by the supplier as the ability of the immobilized protein to inhibit adhesion of Saos-2 human osteosarcoma cells to human fibronectin.
(§2) NT4-biotin was captured on a CM5 sensor chip where streptavidin had previously been immobilized by standard amine coupling. Briefly, the sensor chip surface was activated with a mixture of 0.1 M 1-ethyl-3(3-dimethylaminopropyl)-carbodiimide (EDC) and 0.4 M N-hydroxyl succinimide (NHS) for 7 min at a flow rate of 5 μl/min. Streptavidin was injected over the surface for 7 min, and finally, 1 M ethanolamine pH 8.5 was used to block any activated carboxyl groups. […]
(§3) Kinetics were analyzed with the Biacore T100 evaluation 1.1.1 software using the 1:1 Langmuir model to fit the curves.

[2] = tested on: cancer cells or tissues; design: method as in PMID 27255651, PMID 23713525; conditions: competitors heparin and HS; ref [13], [19]; cited from earlier work
[3] = tested on: cancer cells; conditions: ref [20]; cited from earlier work
Description: NT4 is already known to have major effects on cancer cells, such as inhibition of migration and invasion of ECM induced by FGF ([20]).

[4] = tested on: HT-29 human colon adenocarcinoma; assay: NT4 binding to cells by flow cytometry; assay type: cell-based; conditions: 1 μM NT4-biotin
Description: (§4) PANC-1 human pancreas adenocarcinoma, HT-29 human colon adenocarcinoma, and MCF-7 and MDA-MB-231 human breast adenocarcinoma cells were grown in the recommended American Type Culture Collection (ATCC) media, supplemented with 10% fetal calf serum, 200 μg/ml glutamine, 100 μg/ml streptomycin, 60 μg/ml penicillin, and maintained at 37°C, 5% CO2. Cell lines were purchased from ATCC, and cell profiling was analyzed to authenticate human cell lines (BMR Genomics).
(§5) All experiments were performed using 2 × 10^5 cells in 96-well U-bottom plates. All dilutions were performed in phosphate-buffered saline (PBS), containing 5 mM EDTA and 1% bovine serum albumin (BSA).
(§6) Cells were incubated with 1 μM NT4-biotin for 30 min at room temperature and then incubated with 1 μg/ml streptavidin–fluorescein isothiocyanate (FITC). For heparinase treatment, cells were incubated for 1 h at 37°C on the plates with 0.03 IU/ml heparinase I/III blend (Sigma Aldrich), and then harvested and incubated with the same concentration of heparinase in suspension for an additional hour at 37°C before NT4 staining. All experiments were repeated two times. P values were calculated using a two-tailed Student t-test and GraphPad Prism 5.0 software.

[5] = tested on: MDA-MB-231 human breast adenocarcinoma; assay: NT4 binding to cells by flow cytometry; assay type: cell-based; conditions: heparinase I/III blend 0.03 IU/ml, 1 h + 1 h at 37°C, 1 μM NT4-biotin, 30 min, room temperature, streptavidin–FITC, repeated two times
Description: as §4, §5, §6

[6] = tested on: MCF-7 human breast adenocarcinoma; assay: NT4 binding to cells by flow cytometry; assay type: cell-based; conditions: heparinase I/III blend 0.03 IU/ml, 1 h + 1 h at 37°C, 1 μM NT4-biotin, 30 min, room temperature, streptavidin–FITC, repeated two times
Description: as §4, §5, §6

[7] = tested on: PANC-1 human pancreas adenocarcinoma; assay: NT4 binding to cells by flow cytometry; assay type: cell-based; conditions: 1 μM NT4-biotin
Description: as §4, §5, §6

[8] = ref [13], [19] (b5); cited from earlier work
Description: (§7) NT4 peptides can be conjugated with different functional units and can selectively deliver drugs for cancer therapy or transport tracers for tumor imaging ([11], [12], [15]–[18]). […] NT4 transports the chemotherapeutic moiety to the cancer cell membrane and, ultimately, into the cell ([14]–[16]).

[9] = tested on: glypican-3; assay: SPR, NT4 binding to recombinant glypican-3; design: species or system human; conditions: rHSPG over immobilized NT4
Description: as §1, §2, §3

[10] = design: method as in PMID 27255651; conditions: compared with heparin and HS; ref [13]; cited from earlier work
[11] = tested on: breast cancer cells; conditions: ref [13], [20]; cited from earlier work
Description: as §7, with “([14]–[16]). In animal models of cancer, the higher concentration of the cytotoxic drug at the site of the tumo ...” for “([14]–[16]).”

[12] = tested on: pancreas adenocarcinoma cells; conditions: ref [13]; cited from earlier work
Description: as §7, with “([14]–[16]). In animal models of cancer, the higher concentration of the cytotoxic drug at the site of the tumo ...” for “([14]–[16]).”

[13] = tested on: syndecan-4; assay: SPR, NT4 binding to recombinant syndecan-4; design: species or system human; conditions: rHSPG over immobilized NT4
Description: as §1, §2, §3

[14] = tested on: PgsA-745 cells; conditions: Chinese hamster ovary cell mutant, deficient in xylosyltransferase; ref [13]; cited from earlier work
Description: (§8) NT4 peptide is a tetrabranched peptide that binds to GAG chains of HSPG. […] NT4 binds cell lines of different human cancers, including colon adenocarcinoma, pancreas adenocarcinoma, bladder cancer, and breast cancer ([11], [12]).

[15] = tested on: cell lines of different human cancers, including colon adenocarcinoma, pancreas adenocarcinoma, bladder cancer, and breast cancer; conditions: ref [11], [12]; cited from earlier work
Description: as §8

[16] = ref [9], [10]; cited from earlier work
Description: as §8

[17] = tested on: syndecan-3; assay: SPR, NT4 binding to recombinant syndecan-3; design: species or system human; conditions: rHSPG 25 μg/mL over immobilized NT4
Description: as §1, §2, §3

(pyELYENKPRRPYIL)4K2K-beta-Ala [NT4]
binding to glypican-4 [1]: bound; also recorded: binds | inhibition of NT4 binding and internalization by heparin and HS [2]: completely inhibited | effect on migration and invasion of ECM induced by FGF [3]: inhibition | NT4 cell binding relative to other cell lines ([4]; HT-29 (low sulfatase expression) versus MCF-7 and MDA-MB-231, flow cytometry): bind NT4 better than the others; also recorded: higher in cell lines with lower expression of sulfatases | NT4 binding after heparinase treatment ([4]; HT-29, heparinase I/III blend 0.03 IU/ml, 1 h + 1 h at 37°C, 30 min, room temperature, streptavidin–FITC, repeated two times): much lower than to control cells | NT4 binding after heparinase treatment [5]: much lower than to control cells | NT4 binding after heparinase treatment [6]: much lower than to control cells | NT4 cell binding relative to other cell lines ([7]; PANC-1 (low sulfatase expression) versus MCF-7 and MDA-MB-231, flow cytometry): bind NT4 better than the others; also recorded: higher in cell lines with lower expression of sulfatases | NT4 binding after heparinase treatment ([7]; PANC-1, heparinase I/III blend 0.03 IU/ml, 1 h + 1 h at 37°C, 30 min, room temperature, streptavidin–FITC, repeated two times): much lower than to control cells | binding to heparan sulfate [8]: preferential high-affinity binding | binding to heparin [8]: preferential high-affinity binding | binding to glypican-3 [9]: bound; also recorded: binds | binding to chondroitin sulfate [10]: lower affinity | effect on growth factor-induced migration and invasiveness [11]: inhibited | effect on oriented migration [12]: inhibited | binding to syndecan-4 [13]: binds | binding to cells lacking GAG chains [14]: does not bind | binding to human cancer cell lines [15]: binds | half-life (in words) [16]: long half-life | stability to proteolytic enzymes [16]: stable to proteolytic enzymes | binding to syndecan-3 [17]: does not bind; also recorded: did not bind
